Measured values taken from patent publication US11524960B2, “Heterobicyclic inhibitors of MAT2A and methods of use for treating cancer” (AGIOS PHARMACEUTICALS, INC., priority 2018, dated 2022).

Tests used:
[1] = target: T1, MAT2A homodimer (Homo sapiens, UniProt P31153); test: Biochemical assay: inhibition of MAT2A (phosphate release, PiColorLock Gold); details: MAT2A IC50 score; read-out: Enzyme Inhibition (Example 275)
T1 construct: inferred from Ni sepharose purification and imidazole elution; made in house; host or cells: Sf9 insect cells, recombinant baculovirus (Bac to Bac, pFASTBAC1)
Method in brief: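 Phosphate formed alongside SAM was read with PiColorLock Gold and quantified against a potassium phosphate standard curve. Reactions ran 60 min at 25 °C after adding a substrate mix of 500 μM ATP and 400 μM L-methionine (mix concentrations). Compound had first been preincubated 60 min with recombinant Sf9-derived MAT2A homodimer ([…]) in pH 8.0 Tris buffer containing MgCl2, KCl, EDTA and BSA.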

[2] = system: SAM in HCT116 human colon carcinoma cell line engineered to delete the MTAP gene (MTAP −/−); test: Cellular assay of target engagement (SAM) by LC-MS/MS; type: cell-based; details: Homo sapiens, HCT-116, 72 h, IC50 score, read-out: Cell 72 h SAM Inhibition (MTAP −/−; Example 276)
Method in brief: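 Intracellular SAM, the MAT2A product, was measured by quantitative LC-MS/MS against a d3-SAM standard in methanol/acetic acid extracts. Extracts came from HCT116 MTAP −/− cells exposed for 72 h at 37 °C to a ten-point, threefold dilution series of compound, added one day after seeding.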

[3] = system: HCT116 MTAP+/+; test: Inhibition of cellular proliferation (Cell Titer Glo), HCT116 MTAP+/+; type: cell-based, human; details: Homo sapiens, HCT-116, 96 h, 4 days, IC50 score, read-out: 4 Day Relative Growth Inhibition (MTAP +/+; Example 277)
Method in brief: (§1)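 Proliferation was read as ATP luminescence (Cell Titer Glo) after a 4-day, 37 °C exposure of HCT116 cells differing only in MTAP deletion status. Dosing was 10 points, 3-fold steps, added 24 h post-plating; signal minus blank, relative to 0.2% DMSO control wells, was plotted against log molar concentration.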

[4] = system: HCT116 MTAP−/−; test: Inhibition of cellular proliferation (Cell Titer Glo), HCT116 MTAP−/−; type: cell-based, human; details: Homo sapiens, HCT-116, 96 h, 4 days, IC50 score, read-out: 4 Day Relative Growth Inhibition (MTAP −/−; Example 277)
Method in brief: as §1

T1 sequence (P31153 whole entry): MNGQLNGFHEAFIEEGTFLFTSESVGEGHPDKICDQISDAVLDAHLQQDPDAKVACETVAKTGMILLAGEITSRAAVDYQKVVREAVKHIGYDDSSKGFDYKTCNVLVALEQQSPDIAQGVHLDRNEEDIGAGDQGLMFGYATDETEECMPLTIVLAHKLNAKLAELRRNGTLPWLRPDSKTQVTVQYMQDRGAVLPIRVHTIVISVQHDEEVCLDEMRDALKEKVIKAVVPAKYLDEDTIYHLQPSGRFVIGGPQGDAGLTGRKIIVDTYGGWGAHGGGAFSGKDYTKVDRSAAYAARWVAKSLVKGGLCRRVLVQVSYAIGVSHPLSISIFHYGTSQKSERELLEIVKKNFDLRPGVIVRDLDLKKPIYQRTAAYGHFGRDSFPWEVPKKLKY

IC50 [1]	IC50 [2]	IC50 [3]	IC50 [4]	SMILES
< 100 nM	< 100 nM	0.1 to 10 µM	< 100 nM	CCOc1ccc2cn(-c3ccc4ncn(C)c4c3)c(=O)c(-c3ccc(C4CC4)nc3)c2n1 [Example 228, 8-(6-cyclopropylpyridin-3-yl)-2-ethoxy-6-(1-methyl-1H-benzo[d]imidazol-6-yl)-1,6-naphthyridin-7(6H)-one]
< 100 nM	< 100 nM	> 10 µM	100 to 10000 nM	O=c1c(-c2ccc(Cl)cc2)c2nc(NCC(F)(F)F)ncc2cn1-c1ccc2ncccc2c1 [Example 139, 8-(4-chlorophenyl)-6-(quinolin-6-yl)-2-((2,2,2-trifluoroethyl)amino)pyrido[4,3-d]pyrimidin-7(6)-one]
< 100 nM	< 100 nM	0.1 to 10 µM	< 100 nM	CCOc1ccc2cn(-c3ccc4nn(C)cc4c3)c(=O)c(-c3ccc(C)nc3)c2n1 [Example 219, 2-ethoxy-6-(2-methyl-2H-indazol-5-yl)-8-(6-methylpyridin-3-yl)-1,6-naphthyridin-7(6H)-one]
< 100 nM	100 to 1000 nM	0.1 to 10 µM	100 to 10000 nM	COc1ccc(-n2cc3cnc(NCC(F)(F)F)nc3c(-c3ccc(-c4nc[nH]n4)cc3)c2=O)cc1 [Example 206, 8-(4-(H-1,2,4-triazol-3-yl)phenyl)-6-(4-methoxyphenyl)-2-(2,2,2-trifluoroethylamino)pyrido[4,3-d]pyrimidin-7(6H)-one]
< 100 nM	< 100 nM	0.1 to 10 µM	< 100 nM	CCOc1ccc2cn(-c3ccc4ncn(C)c4c3)c(=O)c(-c3ccc(Cl)cc3)c2n1 [Example 248, 8-(4-chlorophenyl)-2-ethoxy-6-(1-methyl-1H-benzo[d]imidazol-6-yl)-1,6-naphthyridin-7(6H)-one]
< 100 nM	< 100 nM	> 10 µM	100 to 10000 nM	CCNc1ncc2cn(-c3ccc(OC)cc3)c(=O)c(-c3ccc(Br)cc3)c2n1 [Example 188, 8-(4-bromophenyl)-2-(ethylamino)-6-(4-methoxyphenyl)pyrido[4,3-d]pyrimidin-7(6H)-one]
< 100 nM	< 100 nM	> 10 µM	100 to 10000 nM	CCOc1ncc2cn(-c3ccc4ncn(C)c4c3)c(=O)c(-c3ccc(Cl)cc3)c2n1 [Example 269, 8-(4-chlorophenyl)-2-ethoxy-6-(1-methyl-1H-benzo[d]imidazol-6-yl)pyrido[4,3-d]pyrimidin-7(6H)-one]
< 100 nM	< 100 nM	0.1 to 10 µM	< 100 nM	Cn1cc2cc(-n3cc4ccc(OCC(F)F)nc4c(-c4ccc(OC(F)F)cc4)c3=O)ccc2n1 [Example 126-A]
< 100 nM	< 100 nM	0.1 to 10 µM	< 100 nM	Cn1cc2cc(-n3cc4ncc(OCC(F)F)nc4c(-c4ccc(OC(F)F)cc4)c3=O)ccc2n1 [Example 139-A, 2-(2,2-difluoroethoxy)-8-(4-(difluoromethoxy)phenyl)-6-(2-methyl-2H-indazol-5-yl)pyrido[3,4-b]pyrazin-7(6H)-one]
< 100 nM	< 100 nM	> 10 µM	< 100 nM	Cn1cc2cc(-n3cc4ccc(OCC5CC5)nc4c(-c4ccc(Cl)cc4)c3=O)ccc2n1 [Example 233, 8-(4-chlorophenyl)-2-(cyclopropylmethoxy)-6-(2-methyl-2H-indazol-5-yl)-1,6-naphthyridin-7(6H)-one]
< 100 nM	< 100 nM	> 10 µM	< 100 nM	Cn1cc2cc(-n3cc4ccc(NCC(F)(F)F)nc4c(-c4ccc(Cl)cc4)c3=O)ccc2n1 [Example 236, 8-(4-chlorophenyl)-6-(2-methyl-2H-indazol-5-yl)-2-(2,2,2-trifluoroethylamino)-1,6-naphthyridin-7(6H)-one]
< 100 nM	100 to 1000 nM	> 10 µM	> 10000 nM	O=c1c(-c2ccc(-c3cc[nH]n3)cc2)c2nc(NCC(F)(F)F)ncc2cn1-c1ccc2ncccc2c1 [Example 203, 8-(4-(H-pyrazol-3-yl)phenyl)-6-(quinolin-6-yl)-2-((2,2,2-trifluoroethyl)amino)pyrido[4,3-d]pyrimidin-7(6H)-one]
< 100 nM	< 100 nM	> 10 µM	100 to 10000 nM	CC(C)Nc1ncc2cn(-c3ccc4ncccc4c3)c(=O)c(-c3ccc(OC(F)F)cc3)c2n1 [Example 182, 8-(4-(difluoromethoxy)phenyl)-2-(isopropylamino)-6-(quinolin-6-yl)pyrido[4,3-d]pyrimidin-7(6)-one]
< 100 nM	< 100 nM	0.1 to 10 µM	< 100 nM	Cn1cc2cc(-n3cc4cnc(NCC(F)(F)F)nc4c(-c4ccc(Cl)cc4)c3=O)ccc2n1 [Example 123, 8-(4-chlorophenyl)-6-(2-methyl-2H-indazol-5-yl)-2-((2,2,2-trifluoroethyl)amino)pyrido[4,3-d]pyrimidin-7(6H)-one]
< 100 nM	100 to 1000 nM	> 10 µM	100 to 10000 nM	COc1ccc(-n2cc3cnc(NCC(F)(F)F)nc3c(-c3ccc(C4CC4)nc3)c2=O)cc1 [Example 198, 8-(6-cyclopropylpyridin-3-yl)-6-(4-methoxyphenyl)-2-((2,2,2-trifluoroethyl)amino)pyrido[4,3-d]pyrimidin-7(6)-one]
< 100 nM	< 100 nM	> 10 µM	< 100 nM	O=c1c(-c2ccc(OC(F)F)cc2)c2nc(NCC(F)(F)F)ncc2cn1-c1ccc2ncsc2c1 [Example 156, 6-(benzo[d]thiazol-6-yl)-8-(4-(difluoromethoxy)phenyl)-2-((2,2,2-trifluoroethyl)amino)pyrido[4,3-d]pyrimidin-7(6H)-one]
< 100 nM	< 100 nM	> 10 µM	100 to 10000 nM	COc1ccc(-n2cc3cnc(NCC(F)(F)F)nc3c(-c3ccc(CCO)cc3)c2=O)cc1 [Example 205, 8-(4-(2-hydroxyethyl)phenyl)-6-(4-methoxyphenyl)-2-(2,2,2-trifluoroethylamino)pyrido[4,3-d]pyrimidin-7(6H)-one]
< 100 nM	< 100 nM	0.1 to 10 µM	< 100 nM	CCOc1ccc2cn(-c3ccc4ncn(C)c4c3)c(=O)c(-c3ccc(C(F)(F)F)nc3)c2n1 [Example 226, 2-ethoxy-6-(1-methyl-1H-benzo[d]imidazol-6-yl)-8-(6-(trifluoromethyl)pyridin-3-yl)-1,6-naphthyridin-7(6H)-one]
< 100 nM	< 100 nM	> 10 µM	< 100 nM	[2H]C([2H])([2H])Oc1ccc(-c2c(=O)n(-c3ccc4nn(C)cc4c3)cc3ccc(OCC(F)(F)F)nc23)cc1 [Example 116-A]
< 100 nM	< 100 nM	0.1 to 10 µM	< 100 nM	Cn1cc2cc(-n3cc4ncc(OCC(F)F)nc4c(-c4ccc(OC(F)(F)F)nc4)c3=O)ccc2n1 [Example 143-A]
100 to 1000 nM	< 100 nM	0.1 to 10 µM	100 to 10000 nM	CCOc1ccc2cn(-c3ccc4nn(CCS(C)(=O)=O)cc4c3)c(=O)c(-c3ccc(Cl)cc3)c2n1 [Example 225, 8-(4-chlorophenyl)-2-ethoxy-6-(2-(2-(methylsulfonyl)ethyl)-2H-indazol-5-yl)-1,6-naphthyridin-7(6H)-one]
< 100 nM	< 100 nM	> 10 µM	< 100 nM	CCSc1ccc2cn(-c3ccc4nn(C)cc4c3)c(=O)c(-c3ccc(Cl)cc3)c2n1 [Example 259, 8-(4-chlorophenyl)-2-(ethylthio)-6-(2-methyl-2H-indazol-5-yl)-1,6-naphthyridin-7(6H)-one]
< 100 nM	< 100 nM	> 10 µM	100 to 10000 nM	CCOc1ccc2cn(-c3ccc4nn(C)nc4c3)c(=O)c(-c3ccc(Cl)cc3)c2n1 [Example 106-A]
< 100 nM	< 100 nM	> 10 µM	< 100 nM	COc1ccc(-n2cc3cnc(NCC(F)(F)F)nc3c(-c3ccc(OC(F)F)cc3)c2=O)cc1 [Example 195, 8-(4-(difluoromethoxy)phenyl)-6-(4-methoxyphenyl)-2-((2,2,2-trifluoroethyl)amino)pyrido[4,3-d]pyrimidin-7(6H)-one]
< 100 nM	100 to 1000 nM	> 10 µM	100 to 10000 nM	COc1ccc(-n2cc3cnc(NCC(F)(F)F)nc3c(-c3ccc(-c4cc[nH]n4)cc3)c2=O)cc1 [Example 202, 8-(4-(H-pyrazol-3-yl)phenyl)-6-(4-methoxyphenyl)-2-((2,2,2-trifluoroethyl)amino)pyrido[4,3-d]pyrimidin-7(6H)-one]
